From EP4620956A1, “PARP1 INHIBITORS” (Zhejiang Yangli Pharmaceutical Technology Co., Ltd., priority 2022, dated 2024)

How the values were obtained:
A549 WT = assay: Cellular PARylation inhibition, high-content imaging, A549 WT; format: cell-based; details: Homo sapiens, PARylation at the cellular level
Procedure: The inhibitory effect of the compounds on PARP1/PARP2 enzyme activity at the cellular level was detected using high-content imaging. A549 WT, PARP1-KO and PARP2-KO cell lines were established in-house, and the cells were revived. After the cells were stable, a sufficient number of cells were collected and 100 µL of the cell suspension was seeded into a 96-well plate. The next day, the example compounds with serially diluted concentrations were added. […] The plate was incubated for 1.5 hours (A549 WT and PARP2-KO cell lines) or 2 hours (PARP1-KO cell line). After removing the supernatant, 0.4 mM H2O2 was added and incubation was carried out for 10 minutes (A549 WT and PARP2-KO cell lines) or 1.5 mM H2O2 was added and incubation was carried out for 15 minutes (PARP1-KO cell line) to induce extensive cellular DNA damage. After removing the supernatant, the cells were fixed with 4% paraformaldehyde for 20 minutes, followed by treatment with 0.5% Triton X-100 for 20 minutes to increase the permeability of the cell membrane. After that, the cells were incubated with 3% BSA for 1 hour to prevent non-specific binding. […] The cell nuclei were stained for 30 minutes by adding 50 µL DAPI (invitrogen, R37606). After washing twice with PBS, images were acquired on OPERETTA CLS™ (PE) by scanning the cells under a 20x water objective lens in non-confocal mode, with 5 fields of view captured per well. […] The inhibition rate was calculated using the fluorescence values from the Max and Min wells, and the dose-response curve was fitted using the analysis software GraphPad Prism 5 to obtain the IC50 value of each compound for the enzyme activity.

DLD-1 BRCA2^-/- = assay: Anti-proliferative activity (CellTiter-Glo, 7 days), DLD-1 BRCA2-/-; format: cell-based, human
DLD-1 BRCA2^-/- cells = assay: Apoptosis in BRCA2-deficient DLD-1 cells (Annexin V/PI flow cytometry); format: cell-based, human; details: 7 days, different concentrations, three experiments, FIG. 4
Procedure: The mechanism of the anti-proliferative effect of the compounds on BRCA-mutated tumours was analysed, and the impact of the compounds on apoptosis in the BRCA2-mutated cell line was analysed by flow cytometry. BRCA2-deficient human colon cancer DLD-1 cells ([…]) were adherently cultured, with the culture conditions of RPMI1640 medium supplemented with 1% foetal bovine serum and 100 µg/mL hygromycin B. Once entering the logarithmic growth phase, the cells were collected and placed in a 6-well plate with 600,000 cells per well. The cells were allowed to adhere to the plate in a 37°C/5% CO2 incubator overnight. Different concentrations of compounds were added to each well and incubated in the incubator. After 7 days, the cells were collected and placed in a 96-well plate. 195 µL of Annexin V-FITC binding buffer was added to each well to resuspend the cells. Then 5 µL of Annexin V-FITC (beyotime, C1052) was added and gently mixed. […] The data acquired from the flow cytometer were analysed using FlowJo software.
For apoptosis analysis, the apoptosis samples were dragged into FlowJo, the raw data were double-clicked to open the graph window, and FSC-A was selected for the X-axis and SSC-A for the Y-axis. […] The "analysed cell population" was double-clicked in the SSC/FSC plot. […]

PARP3 = biological target: T1, PARP3 (Homo sapiens, UniProt Q9Y6F1); assay: Inhibition of PARP3 enzyme activity (chemiluminescence); format: biochemical
T1 construct: purchased BPS 80503
T1 sequence (Q9Y6F1 1-533): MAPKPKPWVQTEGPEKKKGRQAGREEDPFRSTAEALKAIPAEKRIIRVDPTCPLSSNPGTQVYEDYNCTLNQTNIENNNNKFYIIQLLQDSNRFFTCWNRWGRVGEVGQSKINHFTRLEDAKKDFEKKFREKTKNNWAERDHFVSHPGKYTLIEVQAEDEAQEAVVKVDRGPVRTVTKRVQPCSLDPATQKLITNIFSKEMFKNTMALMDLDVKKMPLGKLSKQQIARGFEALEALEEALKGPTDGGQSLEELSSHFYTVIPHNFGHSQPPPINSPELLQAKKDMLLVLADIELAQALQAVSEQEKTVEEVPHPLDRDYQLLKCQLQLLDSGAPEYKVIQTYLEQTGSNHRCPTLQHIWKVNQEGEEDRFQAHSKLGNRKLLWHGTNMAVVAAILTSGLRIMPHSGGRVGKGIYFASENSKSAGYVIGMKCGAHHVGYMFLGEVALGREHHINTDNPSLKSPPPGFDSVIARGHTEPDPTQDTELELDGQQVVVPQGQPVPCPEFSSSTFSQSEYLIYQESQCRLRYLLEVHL

PARP1 = biological target: T2, PARP1 (Homo sapiens, UniProt P09874); assay: DNA trapping capability of PARP1 (HTRF); format: biochemical
T2 construct: purchased BPS 80501
T2 sequence (P09874 whole entry): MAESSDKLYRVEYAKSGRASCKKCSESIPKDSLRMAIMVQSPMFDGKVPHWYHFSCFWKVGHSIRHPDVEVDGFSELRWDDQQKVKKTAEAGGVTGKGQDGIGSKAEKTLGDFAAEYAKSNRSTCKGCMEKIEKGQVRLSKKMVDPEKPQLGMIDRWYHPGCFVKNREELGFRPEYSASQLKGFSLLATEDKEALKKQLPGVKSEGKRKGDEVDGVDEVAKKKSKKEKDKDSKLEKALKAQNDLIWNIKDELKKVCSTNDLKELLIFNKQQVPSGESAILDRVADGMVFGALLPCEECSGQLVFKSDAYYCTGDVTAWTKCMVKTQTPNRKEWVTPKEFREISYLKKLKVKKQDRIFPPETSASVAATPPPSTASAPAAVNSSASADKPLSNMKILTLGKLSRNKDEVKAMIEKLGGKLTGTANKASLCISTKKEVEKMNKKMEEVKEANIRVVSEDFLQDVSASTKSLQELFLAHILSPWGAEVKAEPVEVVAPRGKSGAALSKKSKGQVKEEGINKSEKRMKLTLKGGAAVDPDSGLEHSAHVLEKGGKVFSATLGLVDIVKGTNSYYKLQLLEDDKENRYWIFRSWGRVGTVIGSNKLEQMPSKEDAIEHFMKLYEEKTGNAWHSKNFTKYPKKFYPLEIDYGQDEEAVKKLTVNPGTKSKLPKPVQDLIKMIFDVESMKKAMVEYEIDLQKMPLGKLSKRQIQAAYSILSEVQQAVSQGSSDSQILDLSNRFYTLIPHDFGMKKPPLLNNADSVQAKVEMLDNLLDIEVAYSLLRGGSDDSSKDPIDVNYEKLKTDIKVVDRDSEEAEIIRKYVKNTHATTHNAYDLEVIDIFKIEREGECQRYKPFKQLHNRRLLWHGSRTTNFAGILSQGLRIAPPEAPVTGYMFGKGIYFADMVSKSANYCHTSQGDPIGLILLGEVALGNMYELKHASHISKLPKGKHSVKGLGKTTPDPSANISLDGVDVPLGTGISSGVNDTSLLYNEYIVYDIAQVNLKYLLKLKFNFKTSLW

SMILES: [2H]C([2H])([2H])NC(=O)c1ccc(N2CCN(Cc3cnc4c(N)c(CC)c(=O)[nH]c4c3)CC2)c(F)n1 [Example 4, 5-(4-((8-Amino-7-ethyl-6-oxo-5,6-dihydro-1,5-naphthyridin-3-yl)methyl)piperazin-1-yl)-6-fluoro-N-(methyl-d3)picolinamide]
- IC50 (A549 WT): 5.2 nM
- BRCA2 mutation/WT selectivity fold (DLD-1 BRCA2^-/-; DLD-1 WT vs DLD-1 BRCA2^-/-): >2,178 fold
- IC50 (DLD-1 BRCA2^-/-; Homo sapiens, DLD-1, 168 h, BRCA2-mutated, 7 days): 4.59 nM
- proportion of apoptotic cells (DLD-1 BRCA2^-/- cells): higher proportion of apoptotic cells at different concentrations than the reference compound AZD5305
- IC50 (PARP3; enzyme activity): 7650 nM
- PARP3 multiple vs PARP1 (PARP3; ratio relative to the PARP1 enzyme activity): 15,929
- EC50 (PARP1): 3.8 nM
